Data as given in patent US12708676B2, “Phosphate compounds for detecting neurological disorders” (Amydis, Inc., priority 2018, dated 2026).
≈ marks a conversion by molar mass, not a printed value. Read-outs that look alike come from different tables or passages of the source.

Key:
[1] = Solubility of Compound 7 in various media; assay type: physicochemical
Experimental: The physical properties of Compound 7 were determined.

[2] = Rabbit pharmacokinetics of Compound 9, Study 1 (retina, brain, blood); assay type: in vivo; conditions: for concentration at 15 min / concentration at 30 min / concentration at 60 min: Study 1, 30 mg Compound 9 injected
Experimental: (§1) Compound 9 was injected into rabbits as a solution in 0.1 M phosphate buffer, pH 7.4 such that rabbits received either 30 mg of Compound 9 (Study 1) or 28 mg of Compound 9 (Study 2). The purpose of these studies was to confirm that Compound 9 could easily be converted into Compound 7 in vivo.
Study 1: Rabbits received a 1.5 mL injection of a 20 mg/mL solution of Compound 9 in 0.1 M phosphate buffer, pH 7.4. Rabbits were sacrificed at the specified time points (N=3 per time point) in the tables below and the average concentration of Compound 9 and Compound 7 was determined in the retina (Table 3), brain (Table 4) and blood (Table 5).

[3] = Rabbit pharmacokinetics of Compound 9, Study 2 (retina, brain, blood/plasma); assay type: in vivo; conditions: rabbit
Experimental: as §1
Study 2: The purpose of this study was to determine if higher concentrations of Compound 9 and/or Compound 7 was present at earlier time points in the tissues specified. Rabbits received a 1.4 mL injection of a 20 mg/mL solution of Compound 9 in 0.1 M phosphate buffer, pH 7.4. Blood was collected from rabbits (N=6) two minutes after receiving Compound 9 to determine the blood concentration at this time point (Table 8). Rabbits were then sacrificed at the specified time points (N=3 per time point) in the tables below and the average concentrations of Compound 9 and Compound 7 were determined in the retina (Table 6), brain (Table 7) and blood (Table 8).

prion deposits = prion deposits (Mus musculus, UniProt P04925); assay type: in vivo; conditions: administered as Compound 10
[4] = target: amyloid deposits associated with CAA (Homo sapiens, UniProt P05067); test: Example 8: ex vivo staining of human CAA brain tissue; assay type: binding
Source text: Post-mortem brain tissue from patients diagnosed with CAA were examined to de-risk the translation from the limited robust preclinical animal models to humans. This study was designed to understand the fundamental basis of fluorescently detecting amyloids using human tissue. […] Human CAA brain tissue and healthy control brain tissue was acquired (University of California, San Diego, CA). […] All CAA patients were female and ranged in age from 70-93 years. Control brains were obtained from cognitively normal patients that ranged in age from 82-94 years from both male and female donors.

α-syn deposits = α-syn deposits (Homo sapiens, UniProt P37840); test: Example 9: retinal imaging of Line 61 Parkinson's Disease Tg mouse model; assay type: in vivo
Source text: Two transgenic mouse models of Parkinson's Disease (D-line and Line 61) were examined for retinal α-syn deposits. The models selected produce α-syn deposition in the brain, but to date production in the retina had not been determined. […] After live imaging, mice were sacrificed, and the brain and retina were harvested for immunofluorescence and biochemistry.
Accordingly, Line 61 model manifest retinal α-syn in ~30% of mice and was useful in showing the utility of the disclosed compounds. […] Brain tissue was extracted post-mortem from mice after the last imaging session and stained with DAPI and a SYN1 antibody confirming the presence of α-syn in the Line 61 Mouse brain.
To confirm objects detected in vivo were α-syn, retinal tissue was extracted post-mortem from mice after the last imaging session and stained with DAPI and a SYN1 antibody (FIG. 11).

alpha-synuclein = alpha-synuclein (Homo sapiens, UniProt P37840); test: Example 9: ex vivo flatmount staining of human retinas with Compound 7 and SYN-1 Ab; assay type: binding; conditions: for Average No. of co-stained objects / Average No. of singly-stained objects: PD retina, per ~250,000 μm^2 area; for Average No. of co-stained objects: co-stained with SYN-1; for Co-localization with alpha-synuclein (SYN-1 Ab): 60 μM Compound 7
Experimental: To understand if Compound 7 (active drug) can detect retinal α-syn in human eyes, human retinal tissue was extracted post-mortem from both a healthy patient and a patient diagnosed with Parkinson's Disease, and stained with Compound 7, DAPI and a SYN1 antibody.
Eye dissection: Cornea, iris and lens were removed from the eye cup and the eye placed into 4% PFA for 1 hour. […] The different regions were mounted on separate slides.
Flatmount retinal staining: The tissue was fixed in room temperature 4% PFA for 20 minutes, washed, permeabilized, blocked (2.5% goat serum in PBST), stained with Alpha-synuclein antibody (SYN-1) at a dilution of 1:1000 and incubate overnight at 4° C., washed with PBST (3 times for 5 minutes), incubated with secondary antibody (Alexa fluor 647 anti-mouse) in dark for 1 hr at RT. The tissue was then washed with PB ST (3 times for 5 minutes), incubated with 60 μM Compound 7 for 30 minutes at RT, washed with PBS (3 times for 10 minutes), incubate with DAPI (300 nM or 100 ng/mL) in dark for 10 minutes, and washed with PBS (3 times for 5 minutes). The tissue was then mounted using antifade DAKO mounting media.
To determine the number of objects co-stained with Compound 7 and SYN1, the average number of objects co-stained with Compound 7 and SYN1 was quantified. This was completed for each quadrant of both the left and right eye (Table 10 and Table 11).

Aβ plaques = Aβ plaques (Homo sapiens, UniProt P05067); test: Example 7: ex vivo staining of human Alzheimer's disease tissue, co-localization with 6E10
[5] = blood, other: injection (site not specified), read-out: Avg Conc., blood
[6] = retina, other: injection (kind of injection not stated), read-out: Avg Conc., retina
[7] = brain, other: injection (site or type of injection not stated), Study 2, 28 mg Compound 9 injected, read-out: Avg Conc., brain
[8] = plasma, other: injection (site not specified), Study 2, 28 mg Compound 9 injected, read-out: Avg Conc., plasma
[9] = retina, other: injection (site not stated), Study 2, 28 mg Compound 9 injected, read-out: Avg Conc., retina

Sequence of prion deposits (P04925 23-230 limits assumed): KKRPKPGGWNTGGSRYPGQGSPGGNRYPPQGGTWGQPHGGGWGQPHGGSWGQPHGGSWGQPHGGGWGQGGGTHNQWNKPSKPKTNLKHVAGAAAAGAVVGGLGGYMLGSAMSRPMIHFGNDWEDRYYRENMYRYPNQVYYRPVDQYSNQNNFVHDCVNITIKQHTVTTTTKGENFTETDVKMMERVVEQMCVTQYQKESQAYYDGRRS
Sequence of Aβ plaques (P05067 672-713 limits assumed): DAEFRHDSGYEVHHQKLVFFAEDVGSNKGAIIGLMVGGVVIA
Sequence of amyloid deposits associated with CAA (P05067 672-711 limits assumed): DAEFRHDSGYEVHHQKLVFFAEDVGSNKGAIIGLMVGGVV

## N#C/C(=C\c1ccc2cc(N3CCCCC3)ccc2c1)C(=O)NCCOCCOCCO [Compound 7, (E)-2-cyano-N-(2-(2-(2-hydroxyethoxy)ethoxy)ethyl)-3-(6-(piperidin-1-yl)naphthalen-2-yl)acrylamide]
[1]; SGF, simulated gastric fluid
  solubility: 3600 µg/mL (≈ 8230 µM)
[1]; castor oil, oil or lipid
  solubility: > 9000 µg/mL
[1]; n-octanol, organic solvent or mixture
  solubility: > 8000 µg/mL
[1]; pH 4.0 buffer, pH 4, aqueous buffer
  solubility: 70 µg/mL (≈ 160 µM)
[1]; pH 7.0 buffer, pH 7, aqueous buffer
  solubility: 4.6 µg/mL (≈ 10.5 µM)
[1]; pH 7.4 buffer, pH 7.4, aqueous buffer
  solubility: 3.3 µg/mL (≈ 7.54 µM)
[1]; pH 9.0 buffer, pH 9, aqueous buffer
  solubility: 4.8 µg/mL (≈ 11 µM)
[1]; water
  solubility: 1.7 µg/mL (≈ 3.89 µM)
[2]; 30 minutes after injection of Compound 9
  Kp,brain by 30 minutes: significantly decreased to undetectable values
[2]; [5]
  concentration at 15 min: 217 ± 31.2 ng/mL
  concentration at 30 min: 9.41 ± 1.89 ng/mL
  concentration at 60 min: 2.1 ± 2.43 ng/mL
[2]; brain, other: injection (site not specified), read-out: Avg Conc., brain
  concentration at 15 min: 0.987 ± 0.273 ng/g
[2]; levels significantly decreasing over an hour
  Circulation time in the retina: relatively short
[2]; [6]
  concentration at 15 min: 10.1 ± 7.3 ng/g
  concentration at 30 min: 2.13 ± 1.71 ng/g
  concentration at 60 min: 0.779 ± 0.325 ng/g
[3]; [7]
  concentration at 5 min: 316 ± 91.6 ng/g
  concentration at 10 min: 68.1 ± 8.86 ng/g
[3]; plasma, other: injection (site not specified), Study 2, 28 mg Compound 9 injected, 2 min, read-out: Avg Conc., plasma
  concentration at 2 min: 1480 ± 409 ng/mL
[3]; [8]
  concentration at 5 min: 975 ± 317 ng/mL
  concentration at 10 min: 251 ± 13.9 ng/mL
[3]; post-dose of Compound 9
  Time at which Kp,brain was highest: 5 min
[3]; via administration of Compound 9 diammonium salt
  Delivery past the blood brain barrier and into retinal tissue: delivered past the blood brain barrier (BBB) and, more importantly, into retinal tissue
[3]; [9]
  concentration at 5 min: 682 ± 119 ng/g
  concentration at 10 min: 183 ± 152 ng/g
[3]; retina, Study 2, 28 mg Compound 9 injected, read-out: Avg Conc., retina
  concentration at 5 min: 682 ng/g
Prion deposits; pre-symptomatic prion-inoculated mice
  Labelling of retinal prion deposits in vivo: successfully labelled large objects around the optic disk and vasculature believed to be prion deposits
Prion deposits; terminally diseased prion mice
  Labelling of retinal prion deposits in vivo: successfully labelled large objects around the optic disk and vasculature believed to be prion deposits
[4]; healthy control human brains
  Staining: absent
[4]; human CAA brains
  Staining of amyloid deposits: successfully stains amyloid deposits associated with CAA
α-syn deposits; Line 61 model, via administration of Compound 10
  Specificity for α-syn deposits: specific for α-syn deposits associated with Parkinson's Disease
α-syn deposits; brain and retinal tissue of Tg mice
  Co-localization with SYN1: co-localizes with an anti-alpha-synuclein antibody (SYN1)
alpha-synuclein; left eye, Inferior
  Average No. of co-stained objects: 13.6
  Average No. of singly-stained objects: 0.87
alpha-synuclein; left eye, Nasal
  Average No. of co-stained objects: 13
  Average No. of singly-stained objects: 0.75
alpha-synuclein; left eye, Superior
  Average No. of co-stained objects: 20
  Average No. of singly-stained objects: 0.25
alpha-synuclein; left eye, Temporal
  Average No. of co-stained objects: 12.37
  Average No. of singly-stained objects: 0.5
alpha-synuclein; right eye, Inferior
  Average No. of co-stained objects: 12.12
  Average No. of singly-stained objects: 0.75
alpha-synuclein; right eye, Nasal
  Average No. of co-stained objects: 14.3
  Average No. of singly-stained objects: 1.75
alpha-synuclein; right eye, Superior
  Average No. of co-stained objects: 16
  Average No. of singly-stained objects: 0.5
alpha-synuclein; right eye, Temporal
  Average No. of co-stained objects: 11.62
  Average No. of singly-stained objects: 0.5
alpha-synuclein; post-mortem retinas of healthy human patient
  Co-localization with alpha-synuclein (SYN-1 Ab): very little or no co-localization
alpha-synuclein; post-mortem retinas of human PD patient
  Co-localization with alpha-synuclein (SYN-1 Ab): co-localization of Compound 7 and Alpha-Synuclein deposits (SYN-1 Ab) in all regions
Aβ plaques; brain and retinal tissue of human Alzheimer's patients
  Binding to Aβ plaques in human tissue: bind to Aβ plaques in both brain and retinal tissue
Aβ plaques; ex vivo, human Alzheimer's brain tissue
  Detection of aggregated Aβ ex vivo: demonstrated the ability to detect aggregated Aβ
